The text below walks through data of patent US11691989B2, “Macrocyclic indoles as Mcl-1 inhibitors” (ASCENTAGE PHARMA (SUZHOU) CO., LTD., priority 2018, dated 2023).

One assay has as its system OPM-2 cells. Description: Cell viability assay (OPM-2 cells), CCK-8. The assay is classed as cell-based. Conditions: Homo sapiens, OPM-2, 24 h, 5% FBS. On the procedure: Cell Viability Assay (OPM-2 cells)
OPM-2 cells were obtained from Deutsche Sammlung von Mikroorganismen and Zellkulturen GmbH (DSMZ). Cells were maintained in the recommended culture medium with 10% FBS at 37° C. and an atmosphere of 5% CO2.
The effect of representative Compounds of the Disclosure on cell viability was determined using Cell Counting Kit-8 (CCK-8) assay (Shanghai Life iLab Bio Technology) according to the manufacturer's instructions. Each tested compound was serially diluted in culture medium, 100 μL of the compound dilution was added into 96-well plates. 100 μL of an OPM-2 cell suspension (20000 cells/well) in culture medium were seeded into the corresponding well of the plate and the cells were incubated at 37° C. in an atmosphere of 5% CO2 for 24 hours. In the next day, 20 μL of CCK-8 solution was added to each well of the plate and incubated for 4 hours.
The plates were read at 450 nm on the microplate spectrophotometer (SpectraMax plus 384, Molecular devices). The readings were normalized to the vehicle cells, and the IC50 was calculated by nonlinear regression analysis using GraphPad Prism 6 software.

For assay [1], the target named is Mcl-1 protein (residues 171-323) (Homo sapiens (Human), UniProt Q07820). In words: Inhibition of Mcl-1 by fluorescence polarization (FP) competitive binding assay with FAM-Bid tracer. Conditions: 2 nM FAM-Bid, 20 nM Mcl-1, 30 min, read-out: Mc1-1 (FP). On the procedure:
Inhibition of Mcl-1 by fluorescence polarization (FP) assay.
The method used a fluorescein labelled peptide (FAM-Bid) which binds to the Mcl-1 protein leading to an increased anisotropy measured in milli-polarization (mP) values using a plate reader.
A 10-points serial dilution of each compound was prepared in DMSO and 5 μL solution was transferred into flat bottomed, 96-well back plate (final DMSO concentration 5%). 120 μL of Buffer (PBS, 0.01% BGG (Sigma Cat. #SRE0011), 0.01% Triton X-100), containing the Fluorescein labelled peptide (Final concentration 2 nM) and Mcl-1 protein (final concentration 20 nM) was then added. […] 10-points dose response curves were plotted with GraphPad software using Sigmoidal Dose-Response Model and the IC50 values were determined by nonlinear regression fitting of the competition curves.

For another assay, the system named is NCI-H929 cells. In words: Cell viability assay (NCI-H929 cells), CCK-8. The class given is cell-based. Conditions: Homo sapiens, NCI-H929, 24 h, 5% FBS. On the procedure: Cell Viability Assay (NCI-H929 cells)
NCI-H929 cells were obtained from American Type Culture Collection (ATCC). Cells were maintained in the recommended culture medium (RPMI 1640) with 10% FBS and 0.05 mM BME at 37° C. and an atmosphere of 5% CO2.
The effect of Compounds on cell viability was determined using Cell Counting Kit-8 (CCK-8) assay according to the manufacturer's instructions. 95 μL of NCI-H929 cell suspension (20000 cells/well) in culture medium were seeded into 96-well plates and cultured 4 hrs. Each tested compound was serially diluted in DMSO, then 5 μL of the compound or DMSO was diluted in 95 μL medium once more. At last, 5 μL of the compound dilution was added to the corresponding well of the cell plate. After the addition of the tested compound, the cells were incubated at 37° C. in an atmosphere of 5% CO2 for 24 hrs. At the end, 10 μL of CCK-8 solution was added to each well of the plate and incubated for 1-4 hours. The plates were read at 450 nm on the microplate reader (BioTek Synergy 1MF). The readings were normalized to the vehicle cells, and the IC50 was calculated by nonlinear regression analysis using GraphPad Prism 6 software.

Sequence of Mcl-1 protein (residues 171-323) (Q07820 171-323): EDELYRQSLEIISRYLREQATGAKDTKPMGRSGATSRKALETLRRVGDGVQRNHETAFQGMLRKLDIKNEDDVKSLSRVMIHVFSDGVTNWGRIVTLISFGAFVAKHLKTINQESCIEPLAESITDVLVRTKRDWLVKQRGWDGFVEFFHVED

As to `CNC(=O)Cn1nc2c(c1C)-c1c(Cl)ccc3c1c(C)c(C(=O)O)n3CCCOc1cc(cc3ccccc13)SCc1cc(nn1C)CSC2` [Cpd. No. 10, (Z)-1^5-chloro-1^3,2^5,6^1-trimethyl-2^1-(2-(methylamino)-2-oxoethyl)-1^1H,2^1H,6^1H-10-oxa-4,8-dithia-1(4,1)-indola-2(4,3),6(3,5)-dipyrazola-9(3,1)-naphthalenacyclotridecaphane-1^2-carboxylic acid], the IC50 with OPM-2 cells was 4110 nM; in assay [1], 4 nM; with NCI-H929 cells, 1850 nM.
The corresponding values for `Cc1c2c(nn1C)CSCc1cc(n(C)n1)CSc1cc(c3ccc(F)cc3c1)OCCCn1c(C(=O)O)c(F)c3c-2c(Cl)ccc31` [Cpd. No. 19, (Z)-1^5-chloro-1^3,9^6-difluoro-2^1,2^5,6^1-trimethyl-1^1H,2^1H,6^1H-10-oxa-4,8-dithia-1(4,1)-indola-2(4,3),6(3,5)-dipyrazola-9(3,1)-naphthalenacyclotridecaphane-1^2-carboxylic acid] are 449 nM, 10 nM and 444 nM.
As to `CNS(=O)(=O)N1Cc2cc(n(C)n2)CSc2cc(c3ccc(F)cc3c2)OCCCn2c(C(=O)O)c(C)c3c(c(Cl)ccc32)-c2c(nn(C)c2C)C1` [Cpd. No. 38, (Z)-1^5-chloro-9^6-fluoro-1^3,2^1,2^5,6^1-tetramethyl-4-(N-methylsulfamoyl)-1^1H,2^1H,6^1H-10-oxa-8-thia-4-aza-1 (4,1)-indola-2(4,3),6(3,5)-dipyrazola-9(3,1)-naphthalenacyclotridecaphane-1^2-carboxylic acid], the IC50 with OPM-2 cells was 543 nM; in assay [1] it was 7 nM; with NCI-H929 cells it was 270 nM.
The corresponding values for `Cc1c(C(=O)O)n2c3ccc(Cl)c(c13)-c1c(nn(C)c1C)CN(C(=O)c1ccccn1)Cc1cc(n(C)n1)CSc1cc(c3ccc(F)cc3c1)OCCC2` [Cpd. No. 42, (Z)-1^5-chloro-9^6-fluoro-1^3,2^1,2^5,6^1-tetramethyl-4-picolinoyl-1^1H,2^1H,6^1H-10-oxa-8-thia-4-aza-1 (4,1)-indola-2(4,3),6(3,5)-dipyrazola-9(3,1)-naphthalenacyclotridecaphane-1^2-carboxylic acid] are 1510 nM, 22 nM and 768 nM.
`COCCn1nc(C)c2c1CSCc1cc(n(C)n1)CSc1cc(c3ccccc3c1)OCCCn1c(C(=O)O)c(C)c3c-2c(Cl)ccc31` [Cpd. No. 27, (Z)-1^5-chloro-2^1-(2-methoxyethyl)-1^3,2^3,6^1-trimethyl-1^1H,2^1H,6^1H-10-oxa-4,8-dithia-1(4,1)-indola-2(4,5),6(3,5)-dipyrazola-9(3,1)-naphthalenacyclotridecaphane-1^2-carboxylic acid]: the IC50 worked out at 258 nM in the assay on OPM-2 cells, 15 nM in assay [1] and 285 nM in the assay with NCI-H929 cells.
The corresponding values for `Cc1c(C(=O)O)n2c3ccc(Cl)c(c13)-c1c(nn(C)c1C)CN(C(=O)c1ncco1)Cc1cc(n(C)n1)CSc1cc(c3ccc(F)cc3c1)OCCC2` [Cpd. No. 43, (Z)-1^5-chloro-9^6-fluoro-1^3,2^1,2^5,6^1-tetramethyl-4-(oxazole-2-carbonyl)-1^1H,2^1H,6^1H-10-oxa-8-thia-4-aza-1(4,1)-indola-2(4,3),6(3,5)-dipyrazola-9(3,1)-naphthalenacyclotridecaphane-1^2-carboxylic acid] are 1250 nM, 22 nM and 613 nM.
The corresponding values for `Cc1c(C(=O)O)n2c3ccc(Cl)c(c13)-c1c(nn(C)c1C)CN(c1ccccc1)Cc1cc(n(C)n1)CSc1cc(c3ccc(F)cc3c1)OCCC2` [Cpd. No. 55, (Z)-1^5-chloro-9^6-fluoro-1^3,2^1,2^5,6^1-tetramethyl-4-phenyl-1^1H,2^1H,6^1E-10-oxa-8-thia-4-aza-1(4,1)-indola-2(4,3),6(3,5)-dipyrazola-9(3,1)-naphthalenacyclotridecaphane-1^2-carboxylic acid] are 744 nM, 24 nM and 145 nM.
The corresponding values for `Cc1c(C(=O)O)n2c3ccc(Cl)c(c13)-c1c(nn(C)c1C)CN(S(=O)(=O)C(F)(F)F)Cc1cc(n(C)n1)CSc1cc(c3ccccc3c1)OCCC2` [Cpd. No. 47, (Z)-1^5-chloro-1^3,2^1,2^5,6^1-tetramethyl-4-((trifluoromethyl)sulfonyl)-1^1H,2^1H,6^1H-10-oxa-8-thia-4-aza-1(4,1)-indola-2(4,3),6(3,5)-dipyrazola-9(3,1)-naphthalenacyclotridecaphane-1^2-carboxylic acid] are 229 nM, 5 nM and 170 nM.
Take `Cc1c(C(=O)O)n2c3ccc(Cl)c(c13)-c1c(nn(C)c1C)CN(C(=O)c1nccn1C)Cc1cc(n(C)n1)CSc1cc(c3ccc(F)cc3c1)OCCC2` [Cpd. No. 44, (Z)-1^5-chloro-9^6-fluoro-1^3,2^1,2^5,6^1-tetramethyl-4-(1-methyl-1H-imidazole-2-carbonyl)-1^1H,2^1H,6^1H-10-oxa-8-thia-4-aza-1(4,1)-indola-2(4,3),6(3,5)-dipyrazola-9(3,1)-naphthalenacyclotridecaphane-1^2-carboxylic acid]: the results for the IC50 (in the assay on OPM-2 cells; in assay [1]; in the assay with NCI-H929 cells) were 1160 nM, 23 nM and 780 nM, respectively.
The corresponding values for `Cc1c(C(=O)O)n2c3ccc(Cl)c(c13)-c1c(nn3c1COCC3)CN(S(C)(=O)=O)Cc1cc(n(C)n1)CSc1cc(c3ccc(F)cc3c1)OCCC2` [Cpd. No. 30, (Z)-1^5-chloro-9^6-fluoro-4-(isopropylsulfonyl)-1^3, 6^1-di methyl-2^6,2^7-dihydro-1^1H,2^4H,6^1H-10-oxa-8-thia-4-aza-2(3,2)-pyrazolo[5,1-c][1,4]oxazina-1(4,1)-indola-6(3,5)-pyrazola-9(3,1)-naphthalenacyclotridecaphane-1^2-carboxylic acid] are 5240 nM, 17 nM and 1850 nM.
In the same order, the values of `Cc1c(C(=O)O)n2c3ccc(F)c(c13)-c1c(nn(C)c1C)CSCc1cc(n(C)n1)CSc1cc(c3ccc(F)cc3c1)OCCC2` [Cpd. No. 21, (Z)-1^5,9^6-difluoro-1^3,2^1,2^5,6^1-tetramethyl-1^1H,2^1H,6^1H-10-oxa-4,8-dithia-1(4,1)-indola-2(4,3), 6(3,5)-dipyrazola-9(3,1)-naphthalenacyclotridecaphane-1^2-carboxylic acid] are 223 nM, 10 nM and 170 nM.
The corresponding values for `Cc1c2c(nn1C)CSCc1cc(n(C)n1)CSc1cc(c3ccc(F)cc3c1)OCCCn1c(C(=O)O)c(C#N)c3c-2c(Cl)ccc31` [Cpd. No. 25, (Z)-1^5-chloro-1^3-cyano-9^6-fluoro-2^1,2^5,6^1-trimethyl-1^1H,2^1H,6^1H-10-oxa-4,8-dithia-1(4,1)-indola-2(4,3),6(3,5)-dipyrazola-9(3,1)-naphthalenacyclotridecaphane-1^2-carboxylic acid] are 5970 nM, 21 nM and 4290 nM.
In the case of `Cc1c2c(nn1C)CSCc1cc(n(C)n1)CSc1cc(c3ccc(F)cc3c1)OCCCn1c(C(=O)O)cc3c-2c(Cl)ccc31` [Cpd. No. 13, (Z)-1^5-chloro-9^6-fluoro-2^1,2^5,6^1-trimethyl-1^1H,2^1H,6^1E-10-oxa-4,8-dithia-1(4,1)-indola-2(4,3),6(3,5)-dipyrazola-9(3,1)-naphthalenacyclotridecaphane-1^2-carboxylic acid], the IC50 was 649 nM in the assay with OPM-2 cells and 180 nM in the assay with NCI-H929 cells.
